Results taken from patent publication US12357598B2, “Treatment of neurodevelopmental disorders” (THE REGENTS OF THE UNIVERSITY OF CALIFORNIA, priority 2018, dated 2025).

Tests used:
Type in all cases: in vivo, mouse
ddY mice [1] = experiment: Locomotion, offspring after maternal glyphosate exposure; settings: juvenile offspring, maternal 0.095% glyphosate vs water
Procedure: Locomotor Activity: Both horizontal and rearing activity were monitored by an infrared ray passive sensor system (SCANET-SV10, Melquest Ltd., Toyama, Japan), and activity was integrated every minute. Individual mice were placed in activity chambers and allowed 1 hour of free exploration as spontaneous activity.

ddY mice [2] = experiment: NORT, offspring after maternal glyphosate exposure; settings: juvenile offspring, maternal 0.095% glyphosate
Procedure: Novel Object Recognition Test (NORT): Mice were habituated for 10 minutes in the test box for 3 straight days. At 4th day, two objects (differing in shape and color but of similar size) were placed in the box 35.5 cm apart (symmetrically), and each animal was allowed to explore in the box for 5 minutes. The animals were considered to be exploring the object when the head of the animal was both facing and within 2.54 cm of the object or when any part of the body, except for the tail was touching the object. The time that mice spent exploring each object was recorded. After training, mice were immediately returned to their home cages, and the box and objects were cleaned with 75% ethanol, to avoid any possible instinctive odorant cues. Retention tests were carried out at one-day intervals, following the respective training. During the retention test, each mouse was reintroduced into their original test box, and one of the training objects was replaced by a novel object. The mice were then allowed to explore freely for 5 minutes, and the time spent exploring each object was recorded. Throughout the experiments, the objects were counter-balanced, in terms of their physical complexity and emotional neutrality. […]

ddY mice [3] = experiment: Prepulse inhibition (PPI) test, offspring after maternal glyphosate exposure; settings: juvenile offspring, maternal 0.095% glyphosate vs water
Procedure: PPI: The offspring mice were tested for their acoustic startle reactivity (ASR) in a startle chamber (SR-LAB; San Diego Instruments, San Diego, CA, USA) using the standard methods described previously (9,10). The test sessions were begun after an initial 10-min acclimation period in the chamber. The mice were subjected to one of six trials: (1) pulse alone, as a 40 ms broadband burst; a pulse (40 ms broadband burst) preceded by 100 ms with a 20 ms prepulse that was (2) 4 dB, (3) 8 dB, (4) 12 dB, or (5) 16 dB over background (65 dB); and (6) background only (no stimulus). The amount of prepulse inhibition (PPI) was expressed as the percentage decrease in the amplitude of the startle reactivity caused by presentation of the prepulse (% PPI). The PPI test lasted 20 min in total.

ddY mice [4] = experiment: Three-chamber social interaction test, offspring after maternal glyphosate exposure; settings: juvenile offspring, maternal 0.095% glyphosate vs water treated group
Procedure: Treatment of TPPU. TPPU was dissolved in polyethylene glycol 400 (PEG 400: Tokyo Chemical Industry Co., Ltd, Tokyo, Japan). TPPU (3 mg/kg/day) or vehicle (5 ml/kg, PEG 400) was administered orally in the pregnant mice from E5 to P21. Behavioral tests of offspring were performed during juvenile stage (P28-P35) after maternal glyphosate exposure (FIG. 1A).
Three-chamber Social Interaction Test: The three-chamber social interaction test was performed to investigate sociability and preference for social novelty in mice, as reported previously (7). The apparatus consisted of a rectangular, three-chambered box and a lid with a video camera (BrainScience Idea, Co., Ltd, Osaka, Japan). Each chamber (20 cm×40 cm×20 cm) was divided by a clear plastic wall with a small square opening (5 cm×8 cm). First, each subject mouse was placed in the box and allowed to explore for 10 min to habituate the environment. During the session, an empty wire cage (10 cm in diameter, 17.5 cm in height, with vertical bars 0.3 cm apart) was located in the center of left and right chamber. Next, an unfamiliar ddY male mouse (stranger 1) that had no prior contact with the subject mouse was put into a wire cage that was placed into one of the side chambers. […] The time spent in each chamber and the time spent around each cage was recorded on video.

ddY mice [5] = experiment: Measurement of NMDAR-related amino acids in plasma and brain after maternal glyphosate exposure; settings: juvenile offspring (P28)
Procedure: Measurement of amino acids. On P28, mice were deeply anesthetized with isoflurane and plasma was collected. Subsequently, prefrontal cortex (PFC), hippocampus and striatum were quickly dissected on ice from whole brain. The dissected tissues were weighed and stored at −80° C. until assayed. Levels of amino acids (glutamate, glutamine, glycine, L-serine, D-serine, GABA) were measured using high performance liquid chromatography system (Shimadzu Corporation, Kyoto, Japan), as reported previously (12,18,19).

With `O=C(O)CNCP(=O)(O)O` [glyphosate] the locomotion (ddY mice [1]) was “not different”, the “novel object recognition test (NORT)” value (ddY mice [2]) was “cognitive deficits” and the “prepulse inhibition (PPI)” value (ddY mice [3]) was “not different”. For the same compound, the “three-chamber social interaction test” value (ddY mice [4]) was “social interaction deficits”, the D-Serine level (ddY mice [5]; PFC) was 0.313 ± 0.010 nmol/mg tissue and the GABA level (ddY mice [5]; PFC) was 2.060 ± 0.058 nmol/mg tissue. The Glutamate level (ddY mice [5]; PFC) was 10.392 ± 0.377 nmol/mg tissue, the Glutamine level (ddY mice [5]; PFC) was 5.053 ± 0.243 nmol/mg tissue and the Glycine level (ddY mice [5]; PFC) was 0.705 ± 0.023 nmol/mg tissue. For the same compound, the L-Serine level (ddY mice [5]; PFC) was 0.622 ± 0.016 nmol/mg tissue, the D-Serine level (ddY mice [5]; hippocampus) was 0.259 ± 0.017 nmol/mg tissue and the GABA level (ddY mice [5]; hippocampus) was 2.469 ± 0.097 nmol/mg tissue. The Glutamate level (ddY mice [5]; hippocampus) was 9.350 ± 0.282 nmol/mg tissue, the Glutamine level (ddY mice [5]; hippocampus) was 4.765 ± 0.137 nmol/mg tissue and the Glycine level (ddY mice [5]; hippocampus) was 0.725 ± 0.030 nmol/mg tissue. For the same compound, the L-Serine level (ddY mice [5]; hippocampus) was 0.662 ± 0.037 nmol/mg tissue, the D-Serine level (ddY mice [5]; plasma) was 7.522 ± 0.578 nmol/mL and the Glutamate level (ddY mice [5]; plasma) was 38.003 ± 1.974 nmol/mL. For the same compound, the Glutamine level (ddY mice [5]; plasma) was 496.268 ± 15.748 nmol/mL, the Glycine level (ddY mice [5]; plasma) was 354.185 ± 9.806 nmol/mL and the L-Serine level (ddY mice [5]; plasma) was 144.824 ± 4.622 nmol/mL. For the same compound, the D-Serine level (ddY mice [5]; striatum) was 0.281 ± 0.010 nmol/mg tissue, the GABA level (ddY mice [5]; striatum) was 3.076 ± 0.151 nmol/mg tissue and the Glutamate level (ddY mice [5]; striatum) was 7.745 ± 0.141 nmol/mg tissue. It also gave a Glutamine level (ddY mice [5]; striatum) of 5.735 ± 0.319 nmol/mg tissue, a Glycine level (ddY mice [5]; striatum) of 0.755 ± 0.039 nmol/mg tissue and a L-Serine level (ddY mice [5]; striatum) of 0.715 ± 0.032 nmol/mg tissue.
